Experimental data taken from US9707239B2, “Compounds that modulate oxidative stress” (vTv Therapeutics LLC, priority 2011, dated 2017).
“Also recorded” adds a separate entry of the source.

How the values were obtained:
Type in all cases: cell-based, human
[1] = system: ATF4; assay: mRNA expression (Quantigene Plex) in NHLF cells: ATF4; conditions: Table 5, 6 h, mRNA normalized to GAPDH, above DMSO treated cells
Description: (§1) Secondary growth of NHLF cells were used for all assays. Cell were thawed and then placed into culture in T225 flasks. The cells were grown to 80% confluency and harvested by washing once with HEPES buffered saline solution and then trypsinizing. Equal numbers (7×10^3 cells per well) of NHLF cells were plated in 96 well tissue culture plates (Corning). Cells were incubated overnight in FGM-2 medium prior to exposure to compound. Cells were treated with either DMSO or a compound as described below for 6 h. Preparation of cell lysates was carried out according to instructions using the Quantigene Reagent system 2.0 protocol (Panomics). mRNA induction was detected from cell lysate using the Quantigene Plex 2.0 Assay Kit (Panomics) on the Luminex platform (BIO-RAD). Expression of GAPDH mRNA was used as the internal control for the Quantigen Plex 2.0 Assay. The data in Tables 5 and 6 represents the fold change of target mRNA expression, normalized to control values, above DMSO treated cells.

[2] = system: HMOX1; assay: mRNA expression (Quantigene Plex) in NHLF cells: HMOX1; conditions: Table 5, 6 h, mRNA normalized to GAPDH, above DMSO treated cells
Description: as §1

[3] = system: ICAM; assay: mRNA expression (Quantigene Plex) in NHLF cells: ICAM; conditions: Table 5, 6 h, mRNA normalized to GAPDH, above DMSO treated cells
Description: as §1

[4] = system: HMOX1; assay: HMOX1 protein expression by immunofluorescence (primary screen, high-content imaging); conditions: NHLF cells
Description: NHLF cells were grown to 80% confluency and harvested by washing once with HEPES and then trypsinizing. Equal numbers ([…]) of NHLF cells were plated in 384 well optilux tissue culture (BD) plates. Cells were incubated overnight in FGM-2 medium prior to exposure to compound. Cells were treated with either DMSO or compound for 16 h. Cells were wash 2× with 1×PBS and fix with 4% Paraformaldyhyde for 15 min. The fixed cells were then permeablized with 0.1% Triton X-100 and blocked with 5% BSA in 1× PBS 0.05% Tween-20 for 15 min. HO-1 antibody (abcam) was used for immunostaining at 1:300 dilution in 1% BSA in 1×PBS for 1 hr. Cells were washed 2× with 1×PBS and secondary antibody goat anti-mouse Alexa 488 1:400 dilution (Invitrogen); Hoechst 1:2000 (Invitrogen) in 1% BSA in 1×PBS for 1 hr. The plate was washed 5× with 1×PBS and read at Hoechst Excitation (“Ex.”) 360 Emission (“Em.”) 535; Alexa 488 Ex. 480 Em. 535 using GE InCell 1000. Results were analyzed using GE InCell Analyzer software and represented as the fold change above DMSO treated cells.
A rapid, quantitative screening assay to detect HMOX1 levels in cells based on an immunofluorescent microscopy using an automated high-content imaging system was developed. […] The data are arrayed as in an IR chart with a calculated mean value for the plate and the 3-sigma upper and lower-confidence limits (UCL and LCL). […]

[5] = system: HMOX1; assay: Effect of NAC on compound induction of HMOX gene expression; conditions: NHLF cells pretreated with 5 mM NAC 1 hr, compound 6 h, FIG. 4
Description: NHLF cells were grown to 80% confluency and harvested by washing once with HEPES and then trypsinizing. Equal numbers (7×10^4 cells per well) of NHLF cells were plated in 96 well tissue culture (Corning) plates. Cells were incubated overnight in FGM-2 medium prior to exposure to compound. Cells were pretreated with 5 mM N-acetyl cysteine for 1 hr. Cells were treated with either DMSO or compound for 6 h. Preparation of cell lysates was carried out according to Quantigene Reagent system 2.0 protocol (Panomics). Heme oxygenase mRNA induction was detected from cell lysate using the Quantigene Plex 2.0 Assay Kit (Panomics) on the Luminex platform (BIO-RAD). Expression of GAPDH mRNA was used as the internal control for the Quantigen Plex 2.0 Assay. Heme oxygenase data represents the fold change, normalized to control values, above DMSO treated cells.
A further test of the hypothesis that Compound 13 induces HMOX1 with minimal alteration of cellular redox levels or chemical reactivity was carried out by treating cells with N-acetyl cysteine (NAC). This compound acts to restore cellular glutathione levels and thus prevent oxidative stress. The degree to which NAC can suppress HMOX1 induction is an indicator of the amount of chemical reactivity or ROS stress that a compound is imposing on the cell and thus activating phase II gene transcription. […] Coupled with the data shown in FIG. 3, it is concluded that Compound 13 induces HMOX1 with minimal elevation of ROS or NAC-sensitive chemical reactivity.

- ATF4 (fold induction) [1]: 1.2 fold induction
- HMOX1 (fold induction) [2]: 25 fold induction
- ICAM (fold induction) [3]: nor did it induce
- ICAM (fold induction) ([3]; listed as #13): 1.1 fold induction
- EC50 ([4]; Homo sapiens, immunofluorescence, dose response, FIG. 2, read-out: effective potency (HMOX1 induction)): < 1 µM
Structure (SMILES): O=C(Nc1ccc2cn[nH]c2c1)c1ccc2[nH]c(Nc3nc4ccccc4s3)nc2c1 [Compound 13, 2-(Benzothiazol-2-ylamino)-1H-benzoimidazole-5-carboxylic acid (1H-indazol-6-yl)-amide]
- averaged signal intensity for HMOX1 staining versus upper confidence limit (UCL) ([4]; primary screen, FIG. 1): significantly greater than the upper confidence limit
- effect of N-acetyl cysteine (NAC) on HMOX1 induction [5]: induces the greatest amount of HMOX1 with the least impact by NAC; also recorded: still induces HMOX1 expression in the presence of NAC
